Reference: publication PMC9569971, “New Oxazolo[5,4-d]pyrimidines as Potential Anticancer Agents: Their Design, Synthesis, and In Vitro Biological Activity Research” (International Journal of Molecular Sciences, 2022)

How the values were obtained:
[1] = system: Caspase-3; assay: Human Caspase-3 (Active) ELISA Kit, HT29 lysate; type: cell-based; conditions: lysate of HT29 cells treated with 3g; SD ±3.03
Method: The test was performed on an HT29 colon adenocarcinoma cell line lysate treated with compound 3g. Cells from the HT29 line were harvested by centrifugation (non-adherent cells) and scraping from the culture flasks (adherent cells), and then the cells were washed twice with cold PBS. The supernatant was removed and discarded, and cell pellets were collected. The cell pellets were then lysed in a cell extraction container for 30 min on ice and […]. The lysate was transferred to microcentrifuge tubes and centrifuged at 13,000 rpm for 10 min at 4 °C. The supernatant was transferred to clean microcentrifuge tubes. Caspase-3 standard (active) was prepared from recombinant protein. The caspase-3 standard was reconstituted with the standard solvent solution at a concentration of 2.5 ng/mL. The contents were swirled and then left for 10 min to ensure complete dissolution. […]
In this method, a monoclonal capture antibody specific to caspase-3 (cleaved) was coated onto the wells of a 96-well plate. […] The absorbance at 450 nm was read for […] after the stop solution was added. […] Concentrations for unknown samples and controls were read from the standard curve. The intensity of the colored product was directly proportional to the concentration of the target protein present in the original specimen, and the optical density was read on a microplate reader. […]

[2] = system: p53; assay: p53 Human ELISA Kit, HT29 lysate; type: cell-based; conditions: lysate of HT29 cells treated with 3g; SD ±0.97
Method: The assay was performed on a lysate of the HT29 colon adenocarcinoma cell line treated with compound 3g. The microwells of the 96-well plate were washed 2 times with approximately 400 µL of washing buffer per well. The washing buffer was left in the wells for approximately 15 s prior to aspiration. Care was taken not to scratch the surface of the microwells. After the final rinsing step, the wells were emptied. An absorbent swab was used to remove excess wash buffer. Standard dilutions were applied to the microwell plate. Two rows of human p53 standard were prepared at dilutions ranging from 50.00 to 0.78 U/mL. […] The color change was monitored with an ELISA measured at 620 nm. The colored product was formed in proportion to the quantity of human p53 protein present in the sample and the standard. […] The results were read immediately after the addition of the enzyme stop solution. Absorbance was measured with a spectrophotometer at 450 nm. A standard curve was prepared from 7 dilutions of the human p53 standard from which the values for compound 3g were read.
Biological assays were performed in three independent replicates, and each replicate used four samples. […] For the assessment of cytotoxicity, mathematical models were developed using the GraphPad PRISM software, based on which CC50 was determined. […]

Cc1noc(N)c1-c1nc2c(NCCCN(C)C)ncnc2o1 [Compound 3g, 2-(5-Amino-3-methylisoxazol-4-yl)-7-N-[3-(N,N-dimethylamino)propyl]aminooxazolo[5,4-d]pyrimidine]
Caspase-3 concentration [1]: 12.27 [ng/mL] | p53 concentration [2]: 4.22 [U/mL]
